# Results as given in publication PMC8456852 (Clinical Pharmacology in Drug Development, 2021).
# Legend:
# [1] = for Geometric mean area under the concentration‐time curve: AUC type not specified; for CL/F (apparent clearance): Overall (N = 12), healthy Japanese, arithmetic mean (SD); for AUC0‐∞, healthy Japanese (this study) vs ING114580 / Maximum concentration, healthy Japanese (this study) vs ING114580: greater in healthy Japanese participants
# [2] = cited from earlier work; for Maximum concentration: studied as individual components, abacavir 600 mg and lamivudine 300 mg
# clinical = conditions: human, in vivo, po
# [3] = cited from earlier work
# [4] = system: uridine diphosphate glucuronosyltransferase family 1 member A1 (UGT1A1); conditions: cited from earlier work
# [5] = system: adenosine triphosphate–binding cassette subfamily G transport protein (ABCG2); conditions: cited from earlier work
# [6] = N = 12 healthy Japanese, single oral dose, fasted
# [7] = dolutegravir twice‐daily dosing
Structure (SMILES),"Geometric mean CL/F [1, 6]","Geometric mean maximum plasma concentration [1, 6]","Geometric mean area under the concentration‐time curve [1, 6]","CL/F (apparent clearance) ([1]; single oral dose, fasted)","AUC0‐∞, healthy Japanese (this study) vs ING114580 [1]","Maximum concentration, healthy Japanese (this study) vs ING114580 [1]",Maximum concentration [2],Cmax (clinical; both),Tmax (clinical; both),concentration at 24 h (clinical; both),CL/F (clinical; female),Cmax (clinical; female),Tmax (clinical; female),concentration at 24 h (clinical; female),half-life (clinical; female),CL/F (clinical; male),Cmax (clinical; male),Tmax (clinical; male),concentration at 24 h (clinical; male),half-life (clinical; male),other results
"Nc1nc(NC2CC2)c2ncn([C@H]3C=C[C@@H](CO)C3)c2n1 [Abacavir, abacavir]",32.9 L/h,5.22 µg/mL,18200 ng·h/mL,33.7 (8.54) L/h,≈ 1.3 fold,1.3 fold,4.26 ± 1.19 µg/mL,5380 ng/mL,1.01 h,6.75 ng/mL,10.5 mL/min/kg,5770 ng/mL,1.51 h,6.6 ng/mL,2.87 h,9 mL/min/kg,4600 ng/mL,0.99 h,7.1 ng/mL,2.77 h,half-life (clinical; both): 2.84 h
"C[C@@H]1CCO[C@H]2Cn3cc(C(=O)NCc4ccc(F)cc4F)c(=O)c(O)c3C(=O)N12 [Dolutegravir, dolutegravir]",0.678 L/h,4.13 µg/mL,71600 ng·h/mL,0.691 (0.145) L/h,,,,4210 ng/mL,3.5 h,1150 ng/mL,0.167 mL/min/kg,4450 ng/mL,2.98 h,1130 ng/mL,13.7 h,0.167 mL/min/kg,3750 ng/mL,4 h,1180 ng/mL,14.6 h,"Exposure (geometric mean AUC0‐∞) of dolutegravir vs abacavir and lamivudine [1, 6]: ≈ 4 times; tmax relative to abacavir (times more slowly) [1, 6]: 3 times; Exposure, this study vs ING115381 ([1]; higher than in healthy Japanese participants given dolutegravir 50 mg alone): 1.9 fold; Cmax (geometric mean) [2, 7]: 4150 ng/mL; Geometric mean AUC from time 0 to 24 hours [2, 7]: 75100 ng·h/mL; Increase in dolutegravir exposure with atazanavir (UGT1A1 inhibitor) ([2]; once‐daily dosing with atazanavir): ≈ 2 fold; Exposure in individuals with ABCG2 genetic variant 421AA [3]: demonstrably higher; Exposure increase in UGT1A*6 heterozygous individuals ([3]; evaluation of 9 phase 1/2 clinical studies): ≈ 1.4 fold; Total magnitude of change in exposure from body weight ([3]; population PK models): < 30%; Oral bioavailability, higher in women than men ([3]; population PK): ≈ 21%; Substrate of UGT1A1 [4]: substrate; Substrate of ABCG2 [5]: substrate"
"Nc1ccn([C@@H]2CS[C@H](CO)O2)c(=O)n1 [Lamivudine, lamivudine]",,3.35 µg/mL,16600 ng·h/mL,,≈ 1.3 fold,1.6 fold,2.04 ± 0.54 µg/mL,3430 ng/mL,2.98 h,38.7 ng/mL,,3650 ng/mL,2.98 h,32.6 ng/mL,,,2980 ng/mL,2.5 h,50.9 ng/mL,,"tmax relative to abacavir (times more slowly) [1, 6]: 3 times; Median tmax, this study vs EPZ104807 ([1]; higher than previously reported in Japanese participants (abacavir/lamivudine formulation)): 1.5 fold"
